Reference: patent publication US9469650B2, “Melampomagnolide B derivatives” (BOARD OF TRUSTEES OF THE UNIVERSITY OF ARKANSAS, priority 2013, dated 2016)

What was measured:
HOP-62 = assay: panel of 60 human tumor cell lines, growth inhibition (Non-Small Cell Lung Cancer)
HOP-92 = assay: as above; settings: for Percent Growth: HOP-92
LOX IMVI = assay: panel of 60 human tumor cell lines, growth inhibition (Melanoma)
U251 = assay: panel of 60 human tumor cell lines, growth inhibition (CNS Cancer); settings: for Percent Growth: U251
UACC-257 = assay: panel of 60 human tumor cell lines, growth inhibition (Melanoma)
A549/ATCC = assay: panel of 60 human tumor cell lines, growth inhibition (Non-Small Cell Lung Cancer); settings: for Percent Growth: A549/ATCC
IGROV1 = assay: panel of 60 human tumor cell lines, growth inhibition (Ovarian Cancer); settings: for Percent Growth: IGROVI
PC-3 = assay: panel of 60 human tumor cell lines, growth inhibition (Prostate Cancer)
CAKI-1 = assay: panel of 60 human tumor cell lines, growth inhibition (Renal Cancer)
MDA-MB-231/ATCC = assay: panel of 60 human tumor cell lines, growth inhibition (Breast Cancer); settings: for Percent Growth: MDA-MB-231/ATCC

SMILES: C=C1C(=O)O[C@H]2[C@H]1CC/C(COC(=O)CCC(=O)NCc1ccc(Cl)nc1)=C\CC[C@@]1(C)O[C@@H]21 [JVM 96]
- Percent Growth (HOP-62; HOP-62, Log10 Concentration −8.0): 95%
- GI50 (HOP-62; Homo sapiens, HOP-62): 20.1 µM
- CC50 (HOP-62; Homo sapiens, HOP-62, read-out: LC50): 95.2 µM
- IC (TGI) (HOP-62; Homo sapiens, HOP-62, read-out: TGI): 43.7 µM
- Percent Growth (HOP-92; Log10 Concentration −4.0): −93%
- Percent Growth (HOP-92; Log10 Concentration −5.0): −2%
- Percent Growth (HOP-92; Log10 Concentration −6.0): 90%
- Percent Growth (HOP-92; Log10 Concentration −7.0): 93%
- Percent Growth (HOP-92; Log10 Concentration −8.0): 93%
- GI50 (HOP-92; Homo sapiens, HOP-92, HOP-92): 2.72 µM
- CC50 (HOP-92; Homo sapiens, HOP-92, read-out: LC50): 33.7 µM
- IC (TGI) (HOP-92; Homo sapiens, HOP-92, read-out: TGI): 9.47 µM
- GI50 (LOX IMVI; Homo sapiens): 4.74 µM
- CC50 (LOX IMVI; Homo sapiens, read-out: LC50): 47 µM
- IC (TGI) (LOX IMVI; Homo sapiens, read-out: TGI): 16.7 µM
- Percent Growth (LOX IMVI; Log10 Concentration −4.0): −86%
- Percent Growth (LOX IMVI; Log10 Concentration −5.0): 25%
- Percent Growth (LOX IMVI; Log10 Concentration −6.0): 103%
- Percent Growth (LOX IMVI; Log10 Concentration −7.0): 98%
- Percent Growth (LOX IMVI; Log10 Concentration −8.0): 98%
- GI50 (U251; Homo sapiens, U-251): 16.7 µM
- CC50 (U251; Homo sapiens, U-251, read-out: LC50): 64.5 µM
- IC (TGI) (U251; Homo sapiens, U-251, read-out: TGI): 32.8 µM
- Percent Growth (U251; Log10 Concentration −4.0): −82%
- Percent Growth (U251; Log10 Concentration −5.0): 88%
- Percent Growth (U251; Log10 Concentration −6.0): 99%
- Percent Growth (U251; Log10 Concentration −7.0): 93%
- Percent Growth (U251; Log10 Concentration −8.0): 92%
- GI50 (UACC-257; Homo sapiens, UACC-257): 8.82 µM
- CC50 (UACC-257; Homo sapiens, UACC-257, read-out: LC50): 53.2 µM
- TGI (UACC-257; UACC-257): 2.26E−5
- Percent Growth (UACC-257; UACC-257, Log10 Concentration −4.0): −87%
- Percent Growth (UACC-257; UACC-257, Log10 Concentration −5.0): 47%
- Percent Growth (UACC-257; UACC-257, Log10 Concentration −6.0): 95%
- Percent Growth (UACC-257; UACC-257, Log10 Concentration −7.0): 90%
- Percent Growth (UACC-257; UACC-257, Log10 Concentration −8.0): 88%
- Percent Growth (A549/ATCC; Log10 Concentration −4.0): −66%
- Percent Growth (A549/ATCC; Log10 Concentration −5.0): 83%
- Percent Growth (A549/ATCC; Log10 Concentration −6.0): 104%
- Percent Growth (A549/ATCC; Log10 Concentration −7.0): 93%
- Percent Growth (A549/ATCC; Log10 Concentration −8.0): 92%
- GI50 (A549/ATCC; Homo sapiens, A549): 16.7 µM
- CC50 (A549/ATCC; Homo sapiens, A549, read-out: LC50): 77.8 µM
- IC (TGI) (A549/ATCC; Homo sapiens, A549, read-out: TGI): 36.1 µM
- GI50 (IGROV1; Homo sapiens, IGROV-1): 16.7 µM
- CC50 (IGROV1; Homo sapiens, IGROV-1, read-out: LC50): 95.5 µM
- IC (TGI) (IGROV1; Homo sapiens, IGROV-1, read-out: TGI): 39.9 µM
- Percent Growth (IGROV1; Log10 Concentration −4.0): −53%
- Percent Growth (IGROV1; Log10 Concentration −5.0): 79%
- Percent Growth (IGROV1; Log10 Concentration −6.0): 107%
- Percent Growth (IGROV1; Log10 Concentration −7.0): 106%
- Percent Growth (IGROV1; Log10 Concentration −8.0): 107%
- GI50 (PC-3; Homo sapiens, PC-3): 15.6 µM
- CC50 (PC-3; Homo sapiens, PC-3, read-out: LC50): 75.7 µM
- IC (TGI) (PC-3; Homo sapiens, PC-3, read-out: TGI): 34.3 µM
- Percent Growth (PC-3; PC-3, Log10 Concentration −4.0): −68%
- Percent Growth (PC-3; PC-3, Log10 Concentration −5.0): 78%
- Percent Growth (PC-3; PC-3, Log10 Concentration −6.0): 93%
- Percent Growth (PC-3; PC-3, Log10 Concentration −7.0): 92%
- Percent Growth (PC-3; PC-3, Log10 Concentration −8.0): 90%
- Percent Growth (CAKI-1; CAKI-1, Log10 Concentration −4.0): −93%
- Percent Growth (CAKI-1; CAKI-1, Log10 Concentration −5.0): 41%
- Percent Growth (CAKI-1; CAKI-1, Log10 Concentration −6.0): 87%
- Percent Growth (CAKI-1; CAKI-1, Log10 Concentration −7.0): 85%
- Percent Growth (CAKI-1; CAKI-1, Log10 Concentration −8.0): 93%
- GI50 (CAKI-1; Homo sapiens, CAKI-1): 6.37 µM
- CC50 (CAKI-1; Homo sapiens, CAKI-1, read-out: LC50): 47.9 µM
- IC (TGI) (CAKI-1; Homo sapiens, CAKI-1, read-out: TGI): 20.3 µM
- GI50 (MDA-MB-231/ATCC; Homo sapiens, MDA-MB-231): 6.19 µM
- CC50 (MDA-MB-231/ATCC; Homo sapiens, MDA-MB-231, read-out: LC50): 61.5 µM
- IC (TGI) (MDA-MB-231/ATCC; Homo sapiens, MDA-MB-231, read-out: TGI): 22.2 µM
- Percent Growth (MDA-MB-231/ATCC; Log10 Concentration −4.0): −74%
- Percent Growth (MDA-MB-231/ATCC; Log10 Concentration −5.0): 39%
- Percent Growth (MDA-MB-231/ATCC; Log10 Concentration −6.0): 91%
- Percent Growth (MDA-MB-231/ATCC; Log10 Concentration −7.0): 96%
- Percent Growth (MDA-MB-231/ATCC; Log10 Concentration −8.0): 97%
